Laboratory results published in patent US4729995A, “Pyrimidine 2,4-dioxamate compounds and pharmaceutical compositions” (Toyo Boseki Kabushiki Kaisha, priority 1986, dated 1988).
Where two headings read alike, the source gives them in different places.

How the values were obtained:
SRS-A release = experiment: Inhibition of SRS-A release from passively sensitized guinea pig lung suspension, bioassay on isolated guinea pig ileum (Experiment 1); format: cell-based, Hartley guinea pig; settings: Cavia porcellus, 37° C, read-out: Release inhibitory rate, SRS-A
Procedure: (§1) Hartley guinea pig (male, weighing about 400 g) was passively sensitized by an intravenous injection of anti-egg albumin guinea pig serum. 48 hours after the sensitization, the lung was taken out and cut finely to prepare a lung suspension. To the suspension were added a test compound and egg albumin, and the mixture was incubated at 37° C. After the reaction, the mixture was centrifuged, and then the amount of histamine and SRS-A in the supernatant was measured. The amount of histamine was measured by a fluorometry in accordance with the method of May et al [cf. J. Allerg., Vol. 40, page 12 (1970)]. The amount of SRS-A was measured by a bioassay using an isolated guinea pig ileum. That is, the guinea pig ileum was suspended within Magnus vessel, and thereto were added an antihistaminic, an antiacetylcholine agent and a test solution, and based on the shrink of guinea pig ileum, the amount of SRS-A was calculated.

Histamine release = experiment: Inhibition of histamine release from passively sensitized guinea pig lung suspension (Experiment 1); format: cell-based, Hartley guinea pig; settings: Cavia porcellus, 37° C, fluorometry, read-out: Release inhibitory rate, Histamine
Procedure: as §1

[1] = tested on: PCA (passive cutaneous anaphylaxis); experiment: Passive cutaneous anaphylaxis (PCA) inhibition in rats (Experiment 2); format: in vivo, Wistar rats; settings: Rattus norvegicus, read-out: PCA inhibitory rate; for inhibition in vivo at 3 mg/kg: 3 mg/kg intravenous, 5 minutes before antigen challenge, six rats (Table 5); for inhibition in vivo at 200 mg/kg: 200 mg/kg oral, one hour before induction of PCA, six rats (Table 2); for inhibition in vivo at 30 mg/kg: 30 mg/kg oral
Procedure: Wistar rats (male, weighing about 200 g) were passively sensitized by an intradermal injection of each 0.1 ml of anti-egg albumin rat serum both sides of median line on back of the animals (each two points, totally 4 points). After 48 hours, a mixture (1 ml) of egg albumin and Evans blue was injected via tail vein, by which PCA (passive cutaneous anaphylaxis) was induced. After 30 minutes, the blue colored region was cut out and the amount of color was measured by the method of Katayama et al [cf. Microbiol. Immunol., Vol. 22, page 89 (1978)]. One hour before the induction of PCA, each test compound was orally administered to six rats at a dose of 200 mg/kg per each rat.
In the above experiments, the test compound was orally administered to six rats at a dose of 30 mg/kg per each rat one hour before the antigen challenge.
In the above experiments, the test compound was orally administered to six rats at a dose of 30 mg/kg per each rat 30 minutes before the antigen challenge.
In the above experiments, the test compound was intravenously administered to six rats at a dose of 3 mg/kg per each rat 5 minutes before the antigen challenge.

[2] = 30 minutes before antigen challenge, six rats (Table 4)
[3] = 1 h, one hour before antigen challenge, six rats (Table 3)

## O=C(O)C(=O)Nc1cc(N2CCOCC2)nc(NC(=O)C(=O)O)n1 [6-morpholinopyrimidine-2,4-dioxamic acid hydrate]
SRS-A release
  inhibition at 100 µM: 47.3%
Histamine release
  inhibition at 100 µM: 21.2%
[1]
  inhibition in vivo at 3 mg/kg: 100%

## O=C(O)C(=O)Nc1cc(N2CCCCC2)nc(NC(=O)C(=O)O)n1 [6-piperidinopyrimidine-2,4-dioxamic acid hydrate]
SRS-A release
  inhibition at 100 µM: 43.2%
Histamine release
  inhibition at 100 µM: 20.5%
[1]
  inhibition in vivo at 3 mg/kg: 100%

## CCCOC(=O)C(=O)Nc1cc(N2CCOCC2)nc(NC(=O)C(=O)OCCC)n1 [di-n-propyl 6-morpholinopyrimidine-2,4-dioxamate]
SRS-A release
  inhibition at 100 µM: 50%
Histamine release
  inhibition at 100 µM: 29.8%

## CCCOC(=O)C(=O)Nc1cc(N2CCCCC2)nc(NC(=O)C(=O)OCCC)n1 [di-n-propyl 6-piperidinopyrimidine-2,4-dioxamate]
SRS-A release
  inhibition at 100 µM: 52.3%
Histamine release
  inhibition at 100 µM: 31.6%

## O=C(Nc1cc(N2CCOCC2)nc(NC(=O)C(=O)OCc2ccccc2)n1)C(=O)OCc1ccccc1 [dibenzyl 6-morpholinopyrimidine-2,4-dioxamate]
SRS-A release
  inhibition at 100 µM: 52.6%
Histamine release
  inhibition at 100 µM: 31.1%

## O=C(Nc1cc(N2CCCCC2)nc(NC(=O)C(=O)OCc2ccccc2)n1)C(=O)OCc1ccccc1 [dibenzyl 6-piperidinopyrimidine-2,4-dioxamate semihydrate]
SRS-A release
  inhibition at 100 µM: 48.6%
Histamine release
  inhibition at 100 µM: 26.5%

## CCOC(=O)C(=O)Nc1cc(Cl)nc(NC(=O)C(=O)OCC)n1 [diethyl 4-chloropyrimidine-2,6-dioxamate monohydrate]
SRS-A release
  inhibition at 100 µM: 52.7%
Histamine release
  inhibition at 100 µM: 24.5%
[1]; 1 h
  inhibition in vivo at 200 mg/kg: 41.7%

## CCOC(=O)C(=O)Nc1cc(N2CCN(C)CC2)nc(NC(=O)C(=O)OCC)n1 [diethyl 6-(4-methylpiperazino)pyrimidine-2,4-dioxamate]
SRS-A release
  inhibition at 100 µM: 33.3%
Histamine release
  inhibition at 100 µM: 23.7%

## CCOC(=O)C(=O)Nc1cc(OC)nc(NC(=O)C(=O)OCC)n1 [diethyl 6-methoxypyrimidine-2,4-dioxamate monohydrate]
SRS-A release
  inhibition at 100 µM: 57.6%
Histamine release
  inhibition at 100 µM: 44.2%
[1]; 1 h
  inhibition in vivo at 200 mg/kg: 83.4%

## CCOC(=O)C(=O)Nc1cc(N2CCOCC2)nc(NC(=O)C(=O)OCC)n1 [diethyl 6-morpholinopyrimidine-2,4-dioxamate]
SRS-A release
  inhibition at 100 µM: 52.6%
Histamine release
  inhibition at 100 µM: 36.2%
[1]; 1 h
  inhibition in vivo at 200 mg/kg: 96.6%
[1]; [2]
  inhibition in vivo at 30 mg/kg: 91.7%

## CCOC(=O)C(=O)Nc1cc(N2CCCCC2)nc(NC(=O)C(=O)OCC)n1 [diethyl 6-piperidinopyrimidine-2,4-dioxamate]
SRS-A release
  inhibition at 100 µM: 46.6%
Histamine release
  inhibition at 100 µM: 12.2%
[1]; 1 h
  inhibition in vivo at 200 mg/kg: 92.4%
[1]
  inhibition in vivo at 3 mg/kg: 100%
[1]; [2]
  inhibition in vivo at 30 mg/kg: 90.6%

## CCOC(=O)C(=O)Nc1cc(N2CCCC2)nc(NC(=O)C(=O)OCC)n1 [diethyl 6-pyrrolidinopyrimidine-2,4-dioxamate]
SRS-A release
  inhibition at 100 µM: 32.8%
Histamine release
  inhibition at 100 µM: 16.1%
[1]; 1 h
  inhibition in vivo at 200 mg/kg: 87.3%
[1]; [2]
  inhibition in vivo at 30 mg/kg: 73.1%

## CC(C)OC(=O)C(=O)Nc1cc(N2CCOCC2)nc(NC(=O)C(=O)OC(C)C)n1 [diisopropyl 6-morpholinopyrimidine-2,4-dioxamate]
SRS-A release
  inhibition at 100 µM: 59.9%
Histamine release
  inhibition at 100 µM: 30.8%
[1]
  inhibition in vivo at 3 mg/kg: 100%

## COC(=O)C(=O)Nc1cc(N2CCCCCC2)nc(NC(=O)C(=O)OC)n1 [dimethyl 6-homopiperidinopyrimidine-2,4-dioxamate]
SRS-A release
  inhibition at 100 µM: 49.2%
Histamine release
  inhibition at 100 µM: 26.3%
[1]; [3]
  inhibition in vivo at 30 mg/kg: 76.9%

## COC(=O)C(=O)Nc1cc(N2CCOCC2)nc(NC(=O)C(=O)OC)n1 [dimethyl 6-morpholinopyrimidine-2,4-dioxamate]
SRS-A release
  inhibition at 100 µM: 47.3%
Histamine release
  inhibition at 100 µM: 27.7%
[1]; [3]
  inhibition in vivo at 30 mg/kg: 98.5%
[1]
  inhibition in vivo at 3 mg/kg: 100%

## COC(=O)C(=O)Nc1cc(N2CCCCC2)nc(NC(=O)C(=O)OC)n1 [dimethyl 6-piperidinopyrimidine-2,4-dioxamate]
SRS-A release
  inhibition at 100 µM: 50%
Histamine release
  inhibition at 100 µM: 32.1%
[1]; 1 h
  inhibition in vivo at 200 mg/kg: 85.6%
[1]; [2]
  inhibition in vivo at 30 mg/kg: 54.4%

## COC(=O)C(=O)Nc1cc(N2CCCC2)nc(NC(=O)C(=O)OC)n1 [dimethyl 6-pyrrolidinopyrimidine-2,4-dioxamate]
SRS-A release
  inhibition at 100 µM: 40.2%
Histamine release
  inhibition at 100 µM: 19.9%
[1]; [3]
  inhibition in vivo at 30 mg/kg: 81.2%
